Test: xn = mol fraction of the nth substance listed
Conditions: Liquid; for viscosity: Capillary tube (Ostwald / Ubbelohde) method; for mass density: Siemens Coriolis flowmeter

CCCCCCCCCC(=O)OC [methyl decanoate] + CCCCCCC
Conditions | mass density, 100 kPa [kg/m3] | mass density, 9000 kPa [kg/m3] | mass density, 12000 kPa [kg/m3] | mass density, 15000 kPa [kg/m3] | viscosity, 100 kPa [mPa·s] | viscosity, 3000 kPa [mPa·s] | viscosity, 9000 kPa [mPa·s] | viscosity, 12000 kPa [mPa·s] | viscosity, 15000 kPa [mPa·s]
308.15 K, x1 = 0.101 | – | 706 | 709 | 712 | – | – | 0.446 | 0.463 | 0.48
308.15 K, x1 = 0.202 | – | 730 | 733 | 736 | – | – | 0.518 | 0.539 | 0.561
308.15 K, x1 = 0.299 | – | 752 | 755 | 758 | – | – | 0.6 | 0.626 | 0.653
308.15 K, x1 = 0.403 | – | 773 | 775 | 778 | – | – | 0.707 | 0.739 | 0.771
308.15 K, x1 = 0.501 | – | 792 | 794 | 797 | – | – | 0.825 | 0.862 | 0.898
308.15 K, x1 = 0.601 | – | 809 | 811 | 814 | – | – | 0.967 | 1.009 | 1.051
308.15 K, x1 = 0.698 | – | 825 | 827 | 829 | – | – | 1.138 | 1.184 | 1.23
308.15 K, x1 = 0.799 | – | 840 | 842 | 844 | – | – | 1.327 | 1.378 | 1.429
308.15 K, x1 = 0.902 | – | 853 | 856 | 858 | – | – | 1.519 | 1.575 | 1.631
308.15 K, x1 = 1 | – | 866 | 869 | 871 | – | – | 1.779 | 1.835 | 1.888
318.15 K, x1 = 0.101 | 689 | – | – | – | 0.339 | 0.355 | – | – | –
318.15 K, x1 = 0.202 | 713 | – | – | – | 0.375 | 0.394 | – | – | –
318.15 K, x1 = 0.299 | 736 | – | – | – | 0.418 | 0.441 | – | – | –
318.15 K, x1 = 0.403 | 757 | – | – | – | 0.486 | 0.514 | – | – | –
318.15 K, x1 = 0.501 | 776 | – | – | – | 0.565 | 0.597 | – | – | –
318.15 K, x1 = 0.601 | 793 | – | – | – | 0.669 | 0.704 | – | – | –
318.15 K, x1 = 0.698 | 809 | – | – | – | 0.8 | 0.84 | – | – | –
318.15 K, x1 = 0.799 | 825 | – | – | – | 0.951 | 0.995 | – | – | –
318.15 K, x1 = 0.902 | 839 | – | – | – | 1.104 | 1.152 | – | – | –
318.15 K, x1 = 1 | 853 | – | – | – | 1.38 | 1.417 | – | – | –

Source: the NIST ThermoML archive (doi:10.1016/j.tca.2018.10.018)
